Measured values taken from US12448366B2, “Solid forms of pralsetinib” (Rigel Pharmaceuticals, Inc., priority 2020, dated 2025).
“Also recorded” adds a separate entry of the source.

Experiments:
Type in all cases: physicochemical
[1] = Dynamic vapor sorption (DVS); conditions: for XRPD / form stability after DVS humidity cycling: XRPD before and after DVS
Protocol: Dynamic Vapor Sorption (DVS) was done using a DVS Intrinsic 1. The sample is loaded into a sample pan and suspended from a microbalance. A typical sample mass for DVS measurement is 25 mg. Nitrogen gas bubbled through distilled water provides the desired relative humidity. A typical measurement comprises the steps: • 1—Equilibrate at 50% RH • 2—50% to 2%. (50%, 40%, 30%, 20%, 10% and 2%) • a. Hold minimum of 5 mins and maximum of 60 minutes at each humidity. The pass criteria is less than 0.002% change • 3—2% to 95% (2%, 10%, 20%, 30%, 40%, 50%, 60%, 70%, 80%, 90%, 95%) • a. Hold minimum of 5 mins and maximum of 60 minutes at each humidity. The pass criteria is less than 0.002% change • 4—95% to 2% (95%, 80%, 70%, 60%, 50%, 40%, 30%, 20%, 10%, 2%) • a. Hold minimum of 5 mins and maximum of 60 minutes at each humidity. The pass criteria is less than 0.002% change • 5—2% to 50% (2%, 10%, 20%, 30%, 40%, 50%) • a. Hold minimum of 5 mins and maximum of 60 minutes at each humidity. The pass criteria is less than 0.002% change High Pressure Liquid Chromatography (HPLC)
Dynamic Vapor Sorption (DVS) was performed using a DVS Intrinsic 1. The samples (12-31 mg) was loaded into a sample pan, suspended from a microbalance and exposed to a humidified stream of nitrogen gas. The sample was held for a minimum of 5 min at each level and only progressed to the next humidity level if there was <0.002% change in weight between measurements (interval: 60 seconds) or 240 min had elapsed. The following program was used: • 1—Equilibration at 50% RH • 2—50% to 2%. (50%, 40%, 30%, 20%, 10% and 2%) • 3—2% to 95% (2%, 10%, 20%, 30%, 40%, 50%, 60%, 70%, 80%, 90%, 95%) • 4—95% to 2% (95%, 80%, 70%, 60%, 50%, 40%, 30%, 20%, 10%, 2%) • 5—2% to 50% (2%, 10%, 20%, 30%, 40%, 50%) High Performance Liquid Chromatography (HPLC)

[2] = Humidity exposure, 75% relative humidity at 40° C. for one week, XRPD; conditions: one week / 7 days, XRPD
[3] = Competitive slurry experiments between free base solid forms
[4] = Drying of free base solid forms (XRPD); conditions: 50° C., (under vacuum where stated)
[5] = Thermal treatment in DSC followed by XRPD (Example 2G); conditions: 150° C.
Excerpt: Select solids were used for thermal treatment in DSC. Solids were heated to specified temperature and then cooled back to room temperature for analysis by XRPD.

[6] = Short term slurries (Example 2A), XRPD; conditions: short term slurry, starting solids Pattern C
Protocol: Short term slurries were carried out at two temperature in 15 solvents during the initial screening. Starting solids were Pattern C. Most solids were Pattern C after slurrying. Solids converted to Pattern A in EtOH, IPA, acetone, and acetonitrile at both temperatures.
The upper phase was sticky and when filtered yielded a low amount of a solid form characterized by XRPD Pattern H.

[7] = Evaporative crystallization (Example 2B), XRPD; conditions: evaporative crystallization at 50° C., to be confirmed by other analytical methods
Protocol: Supernatant from some slurries was recovered for evaporative crystallization. The solutions were evaporated to dryness at 50° C. in atmospheric pressure and then placed at 50° C. under vacuum for 1.5 hours. […] It is possible that these solids were solvates with structures that collapsed to amorphous solids upon drying. Where two experiment numbers are indicated, evaporation was at different concentration.

[8] = Cooling crystallization (Example 2C), XRPD; conditions: for XRPD Pattern (fast cool): crash cooling from 50° C. to 0° C.; for XRPD Pattern (slow cool): from 50° C. at 5° C. per hour
Protocol: Cooling crystallization was done in a range of solvent systems. Two cooling regimes were used: cooling from 50° C. at 5° C. per hour, and crash cooling from 50° C. to 0° C. In all experiments, solids were completely dissolved before cooling. […] Cooling in THF gave two low crystallinity solids, Solid form N (fast cooling), and solid form I (slow cooling).

[9] = Antisolvent crystallization (Example 2D), XRPD; conditions: for XRPD results of direct antisolvent experiments: direct addition; for XRPD results of reverse antisolvent experiments: reverse addition
Protocol: Antisolvent crystallization was done in various solvent systems. First, about 30 mg solid free base of Compound (I) characterized by XRPD Pattern C (solid form C) was dissolved in solvent. Then antisolvent crystallization was done either using the direct or reverse addition method. For direct addition, antisolvent was added dropwise to the solution until a slurry was formed. For reverse addition, solution was added all at once to the antisolvent. The volume of antisolvent used was 4 times the volume of solvent required to dissolve the solid. For example, if 0.15 mL solvent was required to dissolve the solid then the solution was added at once to […] antisolvent. Once solids were formed, the slurries were filtered and solids were recovered for XRPD analysis.

[10] = cooling crystallization, ACN water (8:2 vol)
[11] = cooling crystallization, DMAc:ACN (2:8 vol)
[12] = cooling crystallization, DMAc:IPA (2:8 vol)
[13] = cooling crystallization, DMSO:ACN (2:8 vol)
[14] = cooling crystallization, DMSO:IPA (2:8 vol)
[15] = cooling crystallization, MeOH chloroform (1.88:1 vol), wet solid before drying
[16] = solvent DMAc, antisolvent cyclohexane
[17] = solvent DMAc, antisolvent water

## CO[C@]1(C(=O)N[C@@H](C)c2ccc(-n3cc(F)cn3)nc2)CC[C@H](c2nc(C)cc(Nc3cc(C)[nH]n3)n2)CC1 [Solid Form C, pralsetinib]
[1]
  water gained during the dynamic vapor sorption measurements: 1.44%
  XRPD / form stability after DVS humidity cycling: the same
[1]; DVS
  hygroscopicity (words): not as hygroscopic as pralsetinib free base in solid form A
[1]; Table 3E
  DVS Water Mass Change (wt. %): 1.29-1.44 wt. %
[1]; listed as Solid form C
  XRPD / form stability after DVS humidity cycling: remained stable
[1]; between 2-95% relative humidity
  reversible mass change by DVS: about 1.4%
[1]; humidity range not given
  total mass change observed by DVS: 1.4 wt. %
[2]
  stability on exposure to 75% relative humidity at 40° C.: remained stable
[2]; listed as Pattern C
  stability on exposure to 75% relative humidity at 40° C.: remained unchanged
[3]
  competitive slurry in acetone and isopropanol: converted to solid form A
[3]; listed as Pattern C
  Competitive slurry MeOH: water (1:1 vol) at 23 and 50° C.: C stable
  Competitive slurry isopropanol, MeOH:MtBE: C converts to A
[4]
  behaviour upon drying at 50° C.: converted to a dehydrate, Solid Form B
[4]; listed as Pattern C
  behaviour upon drying at 50° C.: pattern B
[4]; listed as solid form C
  behaviour upon drying at 50° C.: stable
[5]
  solid form after heating to 150° C.: converted to Pattern B (anhydrous); also recorded: converted to solid form B
[6]; EtOH, 22-23° C., dried solids
  XRPD Pattern: A (dry)
[6]; EtOH, 22-23° C., wet solids
  XRPD Pattern: A (wet)
[6]; IPAc, 50° C.
  XRPD Pattern: A + C
[6]; chloroform, 22-23° C., dried solids
  XRPD Pattern: H (dry)
[6]; chloroform, 22-23° C., wet solids
  XRPD Pattern: H (wet)
[7]; DCM, solution 37 mg/mL solvent
  XRPD Pattern: amorphous*
[7]; chloroform, solution 70 mg/mL solvent
  XRPD Pattern: amorphous*
[8]; cooling crystallization, 1,4-dioxane
  XRPD Pattern (fast cool): no solids (−20° C.)
[8]; cooling crystallization, 1,4-dioxane, wet solid before drying
  XRPD Pattern (slow cool): Q (wet)
[8]; cooling crystallization, 1-propanol
  XRPD Pattern (fast cool): no solids (−20° C.)
[8]; cooling crystallization, 1-propanol, wet solid before drying
  XRPD Pattern (slow cool): A (wet)
[8]; [10]
  XRPD Pattern (fast cool): no solids (−20° C.)
  XRPD Pattern (slow cool): no solids (−20° C.)
[8]; [11]
  XRPD Pattern (fast cool): no solids (−20° C.)
  XRPD Pattern (slow cool): no solids (−20° C.)
[8]; [12]
  XRPD Pattern (fast cool): no solids (−20° C.)
  XRPD Pattern (slow cool): no solids (−20° C.)
[8]; [13]
  XRPD Pattern (fast cool): no solids (−20° C.)
  XRPD Pattern (slow cool): no solids (−20° C.)
[8]; [14]
  XRPD Pattern (fast cool): no solids (−20° C.)
  XRPD Pattern (slow cool): no solids (−20° C.)
[8]; cooling crystallization, EtOAc
  XRPD Pattern (fast cool): no solids (−20° C.)
  XRPD Pattern (slow cool): very few solids
[8]; cooling crystallization, EtOH
  XRPD Pattern (fast cool): no solids (−20° C.)
  XRPD Pattern (slow cool): no solids (−20° C.)
[8]; cooling crystallization, IPA
  XRPD Pattern (fast cool): no solids (−20° C.)
  XRPD Pattern (slow cool): A (wet)
[8]; cooling crystallization, IPAc
  XRPD Pattern (fast cool): no solids (−20° C.)
  XRPD Pattern (slow cool): no solids (−20° C.)
[8]; [15]
  XRPD Pattern (fast cool): D (wet)
  XRPD Pattern (slow cool): D (wet)
[8]; cooling crystallization, MeOH
  XRPD Pattern (slow cool): no solids (−20° C.)
[8]; cooling crystallization, THF
  XRPD Pattern (fast cool): N (wet)
[8]; cooling crystallization, THF, wet solid before drying
  XRPD Pattern (slow cool): O + I (wet)
[8]; cooling crystallization, acetone
  XRPD Pattern (fast cool): no solids (−20° C.)
[9]; [16]
  XRPD results of direct antisolvent experiments: phase sep.
  XRPD results of reverse antisolvent experiments: phase sep.
[9]; [17]
  XRPD results of direct antisolvent experiments: C + some B (wet)
  XRPD results of reverse antisolvent experiments: C (wet)
[9]; solvent THF, antisolvent water
  XRPD results of direct antisolvent experiments: oiling
  XRPD results of reverse antisolvent experiments: C (wet)
[9]; solvent MeOH, antisolvent water
  XRPD results of reverse antisolvent experiments: C (wet)
[9]; solvent THF, antisolvent heptane
  XRPD results of reverse antisolvent experiments: am. (wet)
